Source: publication PMC6148246, “HS-1371, a novel kinase inhibitor of RIP3-mediated necroptosis” (Experimental & Molecular Medicine, 2018)

What was measured:
RIP3 = RIP3 (Homo sapiens, UniProt Q9Y572); assay: Mechanism of action / ATP competition study with RIP3 enzyme; assay type: biochemical; conditions: 20 min pre-incubation; Michaelis-Menten and Lineweaver-Burk plots
Experimental: To understand the interaction modes of these inhibitors within RIP3, the mechanisms of action studies including ATP competition were further performed with HS-1371. A 20 min pre-incubation of the compound and RIP3 enzyme was performed to ensure HS-1371 binding to the enzyme and equilibration. The reactions were monitored every 5–15 min to obtain progress curves with a time course. At each time point, radioisotope signal (^33P) was converted into M phosphate transferred to substrate and was plotted against time. The slopes (or velocity; M/min) were then plotted against ATP concentrations to generate a Michaelis–Menten plot and a subsequent Lineweaver–Burk plot (double-reciprocal plot) using GraphPad Prism software (GraphPad Software Inc., San Diego, CA). The results were further analyzed with global fit using GraFit software.

HT-29 cells = assay: TNF-induced apoptosis in HT-29 cells (TC or TS); assay type: cell-based, human; conditions: HT-29, 5 μM pretreated 2 h
Experimental: HT-29 cells expressing RIP3 shRNA, MLKL shRNA, or non-silencing control were analyzed by western blotting (upper panel), and these cells were treated with TSZ (6 h for immunoblotting, 24 h for cell death assay). Cell lysates were analyzed by immunoblotting (middle panel), and cell viability was analyzed by MTT assay (bottom panel). The results are presented as means ± SEM. *P < 0.05, **P < 0.01, ***P < 0.001. b HS-1371 protected cells not only from TNF-induced necroptosis but also from TRAIL-induced necroptosis. HT-29 cells were pretreated with indicated concentrations of HS-1371 and then treated with TRAIL + Smac + zVAD (6 h for immunoblotting, 24 h for cell death assay). Cell lysates were analyzed by immunoblotting, and cell viability was analyzed by MTT assay or phase-contrast microscopy. The results are presented as means ± SEM. *P < 0.05, **P < 0.01, ***P < 0.001. c, d HS-1371 had no effect on TNF-induced apoptosis. HT-29 cells were pretreated with HS-1371 (5 μM) for 2 h and then treated with TC or TS (TNF + either cycloheximide or SMAC mimetic, hereafter referred to as TC or TS, 6 h for immunoblotting, 24 h (TC) or 36 h (TS) for cell death assay). Cell lysates were analyzed by immunoblotting, and cell viability was analyzed by MTT assay (TC) or CellTiter-Glo Luminescent Cell Viability Assay Kit (TS). The results are presented as means ± SEM. *P < 0.05, **P < 0.01, ***P < 0.001

H2009 cells = H2009 cells ectopically expressing RIP3, TSZ-induced necroptosis; assay type: cell-based, human; conditions: H2009 with ectopic RIP3
Experimental: HEK293T, HT-29, H2009, L929, HeLa, and MEF cells were grown in Dulbecco’s Modified Eagle’s Medium (DMEM) supplemented with 10% fetal bovine serum (FBS). RAW264.7 cells were grown in Roswell Park Memorial Institute (RPMI) 1640 media supplemented with 10% FBS. To generate cell lines stably expressing the RIP3 construct, HeLa and H2009 cells were infected with pLX303-hRIP3 lentivirus.
(§1) Cells were pretreated with DAB or HS-1371 for 2 h and then treated with TSZ (6 h for immunoblotting, 24 h for cell death assay). Cell lysates were analyzed by immunoblotting (left bottom panel), and cell viability was analyzed by MTT assay (right panel). The results are presented as means ± SEM. *P < 0.05, **P < 0.01, ***P < 0.001. c, d HS-1371 had the same effect on mouse cells. L929 (mouse sarcoma, c) and MEF (mouse embryonic fibroblast, d) cells were pretreated with inhibitors and then necroptosis was induced by TNF. Cell lysates were analyzed by immunoblotting (upper panel), and cell viability was analyzed by MTT assay (bottom panel). The results are presented as means ± SEM. *P < 0.05, **P < 0.01, ***P < 0.001

[1] = tested on: mouse embryonic fibroblast (MEF) cells; assay: TCZ-induced necroptosis in MEF cells; assay type: cell-based; conditions: TNF plus cycloheximide and zVAD (TCZ)
Experimental: as §1

Chain of RIP3 (Q9Y572 whole entry): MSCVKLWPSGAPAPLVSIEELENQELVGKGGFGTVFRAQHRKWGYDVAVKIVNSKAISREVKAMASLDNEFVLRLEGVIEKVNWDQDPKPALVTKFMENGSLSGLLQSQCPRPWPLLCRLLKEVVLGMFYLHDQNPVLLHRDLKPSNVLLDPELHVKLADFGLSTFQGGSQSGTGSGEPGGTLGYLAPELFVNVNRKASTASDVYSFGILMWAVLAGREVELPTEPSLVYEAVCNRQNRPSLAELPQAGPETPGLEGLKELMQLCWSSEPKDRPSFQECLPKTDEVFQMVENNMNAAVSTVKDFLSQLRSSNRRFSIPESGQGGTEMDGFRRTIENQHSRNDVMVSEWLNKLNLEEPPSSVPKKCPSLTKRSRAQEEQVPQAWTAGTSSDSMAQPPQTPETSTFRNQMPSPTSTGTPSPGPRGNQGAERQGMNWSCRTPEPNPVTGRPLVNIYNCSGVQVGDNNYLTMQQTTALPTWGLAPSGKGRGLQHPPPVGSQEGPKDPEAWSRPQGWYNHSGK

Which results are given for Cc1ccc(Oc2ccnc3cc(-c4cnn(C5CCNCC5)c4)ccc23)cc1 [HS-1371, 7-(1-(Piperidin-4-yl)-1H-pyrazol-4-yl)-4-(p-tolyloxy)quinoline]?
mechanism of action upon binding to RIP3 (RIP3): time-independent and ATP-competitive; apoptosis induced by TNF plus CHX (HT-29 cells; TC 24 h, MTT): did not inhibit; apoptosis induced by TNF plus Smac mimetic (HT-29 cells; TS 36 h, CellTiter-Glo): did not inhibit; TSZ-induced necroptosis (H2009 cells): prevented; MLKL phosphorylation and cell death [1]: effectively prevented
